Patent US20110263016A1, “Expansion of Embryonic Stem Cells” (priority 2008, published 2011)

Key:
[1] = system: H9 hESCs; assay: Expansion of hESCs in stirred suspension bioreactors; assay type: cell-based, human
Experimental: Bioreactor Maintenance of hESCs. H9 cells passaged in static on Matrigel™ or using feeder layers were pre-treated for 1 hr with 10 μM Y-27632 (Sigma), then dissociated as described earlier. The hESCs were then inoculated into 125 ml bioreactors (NDS Technologies) at 1.8×10^4 cells/ml. The bioreactors contained 100 ml of mTeSR medium supplemented with 10 μM Y-27632 and 0.1 nM Rapamycin (Sigma), were agitated at 100 rpm and were incubated under standard conditions (37° C., 5% CO2, saturated humidity). After 24 hrs in suspension culture, the Y-27632 was removed and replaced with mTeSR medium containing 0.1 nM Rapamycin. […] The single cell suspension of hESCs was split 1:5 and inoculated into a new bioreactor containing 100 ml of mTeSR medium supplemented with 10 μM Y-27632 and 0.1 nM Rapamycin for 24 hrs.
In the bioreactor systems, hESCs (collected from static cultures containing Matrigel™ or human foreskin fibroblast feeder (HFF) cells) were inoculated at 1.8×10^4 cells/ml into 100 ml of mTeSR medium (Stemcell Technologies Inc.) and agitated at 100 rpm.

[2] = system: hESCs; settings: cited from earlier work

With C[C@@H](N)[C@H]1CC[C@H](C(=O)Nc2ccncc2)CC1 [Y-27632] the hESC aggregate formation ([1]; 10 μM ROCK inhibitor and 0.1 nM Rapamycin together, 1.8×10^4 cells/ml, mTeSR, 100 rpm) was “form tight aggregates”, the “hESC aggregate formation when the inhibitor is left out” value ([1]; ROCK inhibitor excluded from bioreactor cultures, by day 5, data not shown) was “noticeably fewer aggregates were observed and mainly single cells were observed by day 5” and the “lag phase of the cultures” value ([1]; exposure to ROCK inhibitor decreased from 4 days to 24 hrs) was “substantial decrease in the lag phase”. The overall expansion ([1]; non-passaged cultures, ROCK inhibitor day 0 to day 4, collagenase every 5 days, over 20 days) was 67 fold and the “survival rate of dissociated, single hESCs” value [2] was “increases the survival rate”.
